# Values quoted from earlier work, collected in patent US20080089848A1, “INTRATHECAL INJECTION OF MICROBUBBLES” (priority 2006, published 2008).
# Legend:
# [1] = tested on: middle cerebral artery occlusion
# vasospasm [2] = tested on: vasospasm
# [3] = tested on: glutamate-induced nitric oxide related neurotoxicity
# [4] = systemic administration, patients with intracranial hypertension
# traumatic brain injury = conditions: parental administration no more than 12 hours post-trauma
# [5] = tested on: primary murine cerebellar granule neurons
# [6] = tested on: beta amyloid protein; dopaminergic neurons
# vasospasm following SAH = conditions: collagen devices, canines with autologous blood in the cisterna magna
# vasospasm [7] = tested on: vasospasm; remark: listed apart in the source
# [8] = rat MCA occlusion, retrograde cerebral vein infusion
# [9] = intracisternal injection, patients, Hamada 2003
molecule,measurement,setting,value
CCNCc1cc(C(C)(C)C)c(O)c(C(C)(C)C)c1 [LY231617],BBB permeability,[1]; [8],significant improvement
same,local cerebral blood flow,[1]; [8],significant increase
same,ischemic damage,[1]; seven hours post-MCA occlusion,significantly reduced
NCCN(CCN)/[N+]([O-])=N/O [diethylene-triamine/NO],vasospasm in rabbits,"vasospasm [2]; implants in the cisterna magna, Pradilla",prevented vasospasm
same,vasospasm in the rabbit basilar artery,"vasospasm [2]; implants in the subarachnoid space, Gabikian",prevented vasospasm
CN(c1nc2ccccc2s1)C1CCN(C[C@H](O)COc2ccc(F)c(F)c2)CC1 [lubeluzole],glutamate-induced nitric oxide related neurotoxicity,[3],inhibits
O=S(=O)([O-])[O-].[Mg+2] [magnesium sulfate],CSF ionized magnesium concentration,[4],failed to increase
same,increase of plasma magnesium levels,[4],> 50%
[Mg+2] [magnesium],brain magnesium homeostasis,traumatic brain injury,restores brain magnesium homeostasis
same,motor and cognitive outcome,traumatic brain injury,profoundly improves both motor and cognitive outcome
TNF-α,concentration that markedly reduces the capacity of IGF-I to promote survival,[5],≥ 10 pg/mL
VEGF,neuroprotection in AD,[6]; Yang,provides neuroprotection in AD by binding to beta amyloid protein
same,neuroprotection in PD,"[6]; low dose, Yasuhara",neuroprotective towards dopaminergic neurons
hirudin,reduction in the diameter of the basilar artery,vasospasm following SAH,lowered the reduction in the diameter of the basilar artery
urokinase,safety and prevention of vasospasms,"vasospasm [7]; human, in vivo",safe and reasonable means of preventing vasospasms
same,occurrence of symptomatic vasospasm,vasospasm [7]; [9],significantly reduced
same,rate of permanent neurological deficits,vasospasm [7]; [9],lower rate
